Values of other authors as cited in PMC8559537 (ACS infectious diseases, 2021).

System: nanoluciferase (Nluc) expressing C. parvum
Conditions: positive control, 100 mg/kg

## CCOc1ccc2cc(-c3nn(CC4CCN(C)CC4)c4ncnc(N)c34)ccc2n1 [BKI-1369]
  effect on infection in the IFN-γ KO mouse model: reduce infection quickly
